Laboratory results reported in patent US20260124213A1, “STAPHYLOCOCCUS AUREUS PBP4 INHIBITORS AND METHOD OF USE” (UNIVERSITY OF ROCHESTER, priority 2022, published 2026).
Several values for one entry are separate records, joined by “and”; a condition that tells them apart may be missing. Equal entries are not always repeated.

What was measured:
MRSA strain BAA-1770 = assay: Broth microdilution antibiotic potentiation; assay type: cell-based, Staphylococcus aureus; conditions: Ex. 3 compound at 60 μM
Method: Broth Microdilution Method for Antibiotic Potentiation with MRSA Strains. Bacteria were cultured for 6 hours in CAMHB and sub-cultured to 5×10^5 CFU/mL in CAMHB. Subcultures were aliquoted (4 mL) into culture tubes and then inoculated with compound from 10 mM or 100 mM stock in DMSO to the desired concentration. […] Bacteria treated with antibiotic alone served as the control. Samples from the secondary culture tubes were then aliquoted (200 μL) into the first row of wells of a 96-well microtiter plate. Rows 2-11 were filled (100 μL) with the remaining 4 mL of bacterial subculture containing the adjuvant. Row 12 was filled (100 μL) with uninoculated media. From row 1, 100 μL was transferred to row two and mixed 5-8 times before being transferred to row 3. This procedure was used to serial dilute the rest of the rows through 10. The microtiter plate was then covered in Press 'n Seal and incubated at 37° C.

[1] = target: recombinant B. subtilis PBP4 (Bacillus subtilis, UniProt P40750); assay: BOCILLIN FL fluorescence polarization binding competition; conditions: compound 50 μM; Ex. 3 series
Method: PBP4 BOCILLIN™ FL Binding Competition Assays. The ability of putative PBP4 inhibitors to impact the active site of recombinant PBP4 was assessed using two previously established BOCILLIN™-FL Penicillin (Penicillin V conjugated to BODIPY fluorescent dye) binding assays. First, fluorescence polarization assays were performed as previously described. Briefly, the indicated amount of the putative PBP4 inhibitor or control antibiotic was incubated with 1 μM recombinant B. subtilis PBP4 or S. aureus PBP2a in potassium phosphate buffer (40 mM K2HPO4 and 10 mM KH2PO4) for 1 hour in black 96-well microtiter plates (Corning Life Sciences®, Corning, NY). Following incubation, 1 μM (final concentration) BOCILLIN™ FL penicillin was added, and the mixture was incubated for 30 minutes. BOCILLIN™ FL fluorescence polarization was measured at (495nm excitation and 545nm emission) in a SpectraMax® M5 multimode plate reader (Molecular Devices®, San Jose, CA). All assays were repeated at least 8 times, averaged, and values falling outside of 2 standard deviations were considered outliers. Resulting data was plotted as percentage BOCILLIN™ FL binding inhibition=(T/U)×100; T=FL polarization of ((PBP4+BOCILLIN™ FL)−(PBP4+BOCILLIN™ FL+inhibitor compound)), U=FL polarization of ((PBP4+BOCILLIN™ FL)−(BOCILLIN™ FL)). Second, gel electrophoresis and fluorescence detection were used to measure BOCILLIN™ FL labeling of PBP4 treated with the known PBP4 inhibitor cefoxitin (positive control), kanamycin (negative control) or 9314848 (test compound). Briefly, 1 μM of recombinant PBP4 was mixed with 0, 50, 500, 2000, or 5000 μM 9314848 or control antibiotic in 50 mM phosphate buffer (pH 7.4) and incubated at 37° C. for 30 minutes. Next 40 μM of BOCILLIN™ FL was added to the reaction mixture and incubated for an additional 30 minutes at 37° C. Reactions were stopped by adding 5×SDS-PAGE gel loading dye, heated at 100° C. for 3 minutes and separated by electrophoresis in 12% SDS-PAGE (2 h, 120 Volts). BOCILLIN™ FL labeled PBP4 was imaged at λ=365 nm using a BioRad© Gel Doc EZ™ Imaging system and the gel was then subsequently stained with Bio-safe Coomassie Brilliant Blue stain (BioRad©, Hercules, CA, USA) to measure the amount of protein present in each reaction condition and analyzed using NIH-ImageJ software. The percent BOCILLIN™ FL binding was calculated by first normalizing the protein present in each reaction condition to that of untreated control and subsequently applying each reaction's protein normalization factor to each reaction's fluorescent signal. The percentage BOCILLIN™ FL binding inhibition was then calculated as the normalized band intensity of antibiotic/compound treated sample as compared to control sample (PBP4+BOCILLIN™ FL in the absence of compound).
To more directly evaluate whether 9314848 is likely to affect PBP4 function, the compound's ability to bind recombinant PBP4 was measured using BOCILLIN™ FL fluorescence polarization displacement assays. The premise for the assay is that the fluorescence polarization of the fluorescently labeled β-lactam, penicillin V (BOCILLIN™ FL), will increase upon binding to its cognate target (i.e., PBP4). Further, compounds that bind PBP4 and inhibit its function would impede BOCILLIN™ FL binding thereby allowing assessment of the protein binding affinity of 9314848 using a simple fluorescence reduction assay.

[2] = test system: pbp4 expression in USA300; assay: Quantitative reverse transcriptase PCR of pbp4 transcript; assay type: cell-based, Staphylococcus aureus; conditions: 25 μM, 3 hour
Method: (§1) Quantitative Reverse Transcriptase PCR. PBP4 transcript titers of bacterial cells exposed to putative PBP4 inhibitors were measured using real time quantitative PCR (RT-qPCR), as previously described (Chojnacki, et al. Antibiotics, 2021, 10, 369). Briefly, overnight cultures of S. aureus strains USA300, USA300Δpbp4, CRB, and CRBΔpbp4 were grown overnight in MH media, diluted (1:100 dilution) in fresh media and sub-cultured to a final OD600 nm of 0.2 at 37° C. with aeration. […] Cells were washed with PBS buffer, and collected via centrifugation at 1,250×g for 10 minutes. Total bacterial RNA was isolated from cell pellets using Qiagen® RNeasy kits, following the manufacturer's guidelines for prokaryotic RNA isolation (Qiagen®, Germantown, MD). A total of 2 μg RNA was DNase treated and repurified using RNeasy kits.
(§2) To measure pbp4 expression, a total of 400 ng of total bacterial RNA was used as a template for qRT-PCR using pbp4 primers (forward, 5′-[…]-3′; reverse, 5′-[…]-3′) and a total of 4 ng of total bacterial RNA was used as a template for primers specific for 16S rRNA (forward, 5′-[…]-3′; reverse, 5′-[…]-3′). Bacterial RNA was amplified and measured using PerfeCTa® SYBR Green FastMix® and qScript® cDNA SuperMix® kits following the manufacturer's recommendations (QuantaBio®, Beverly, MA). […]

pbp4 expression in CRB = assay: as above; assay type: cell-based, Staphylococcus aureus; conditions: 25 μM, 3 hour
Method: as §1, §2

strain CRBΔpbp4 = assay: microbe, parasite or virus in culture; assay type: cell-based, Staphylococcus aureus; conditions: CRBΔpbp4

Chain of recombinant B. subtilis PBP4 (P40750 22-624): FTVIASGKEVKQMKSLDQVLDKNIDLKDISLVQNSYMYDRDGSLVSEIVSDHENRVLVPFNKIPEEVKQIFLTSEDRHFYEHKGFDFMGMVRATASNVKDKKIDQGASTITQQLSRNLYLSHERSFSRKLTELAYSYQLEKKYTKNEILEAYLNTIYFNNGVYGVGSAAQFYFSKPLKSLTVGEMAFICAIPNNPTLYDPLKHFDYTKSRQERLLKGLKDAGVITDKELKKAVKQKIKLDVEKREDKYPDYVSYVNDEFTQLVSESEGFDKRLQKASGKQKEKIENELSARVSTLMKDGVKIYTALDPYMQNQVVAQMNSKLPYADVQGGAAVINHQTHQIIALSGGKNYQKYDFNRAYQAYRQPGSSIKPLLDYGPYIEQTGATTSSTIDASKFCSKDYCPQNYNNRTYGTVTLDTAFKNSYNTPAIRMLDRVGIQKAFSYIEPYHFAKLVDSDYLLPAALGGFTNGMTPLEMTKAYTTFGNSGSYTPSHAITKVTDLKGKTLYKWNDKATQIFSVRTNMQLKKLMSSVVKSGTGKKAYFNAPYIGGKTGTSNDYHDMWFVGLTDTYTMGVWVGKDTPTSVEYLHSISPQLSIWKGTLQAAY

O=C(Nc1ccc2[nH]c(-c3cccs3)nc2c1)c1ccco1 [Compound 1 (7729837)]
Oxacillin MIC fold reduction (MRSA strain BAA-1770): 32 | Percentage Bocillin Displacement (%), PBP4 binding [1]: 25.66% and 25.66 ± 18.09% | pbp4 expression (qRT-PCR) [2]: slightly reduced | pbp4 expression (qRT-PCR) (pbp4 expression in CRB): significantly reduced | Cmpd (putative PBP4 inhibitor) MIC, Alone (strain CRBΔpbp4): 400 µM | Fold-decrease in ceftobiprole resistance in combination (strain CRBΔpbp4): 0 | Cmpd concentration, Combination (strain CRBΔpbp4; with ceftobiprole): 50 µM | BPR (ceftobiprole) MIC, Combination (strain CRBΔpbp4; with putative PBP4 inhibitor): 0.25 µg/mL
